Data on one substance can be found in patent publication US20240293563A1, “GLP-1 RECEPTOR LIGAND MOIETY CONJUGATED OLIGONUCLEOTIDES AND USES THEREOF” (priority 2017, published 2024).

Assay [1] relates to MALAT1 mRNA. Put plainly: Dose dependent antisense inhibition of MALAT1 in hGLP1R-HEK cells. As to conditions: approximately 24 hrs, qRT-PCR normalized to RPLP0. It counts as cell-based, human. The procedure: The hGLP1R-HEK cell line was generated by expressing hGLP1R in Flp-IN™ 293 cells. Cultured hGLP1R-HEK cells were seeded at a density 30,000 cells per well in 96 well plates and saline, 100 nM or 10 μM of unconjugated parent antisense oligonucleotide ISIS 556089 targeted to MALAT1 described above or ISIS 776102 (nucleobase sequence: […]) (SEQ ID NO: 64) targeted to FOXO1, or corresponding GLP-1 peptide conjugated antisense oligonucleotides (ISIS 816385 targeted to MALAT1 described above or ION 913193 targeted to FOXO1 described above) for approximately 24 hrs. After the treatment period, cells were harvested, the mRNA isolated and adjusted to total RNA content as measured by nanadrop UV-Vis spectrophotometer. MALAT1 or FOXO1 mRNA levels were measured by quantitative real-time PCR and normalized to the mRNA levels of the house keeping gene (RPLP0) in the same samples. Human MALAT1 mRNA levels were measured using gene expression assays HS00273907 and FOXO1 mRNA levels were measured using assay Hs01054576 (Applied Biosystems). The mRNA level of the house keeping gene RPLP0 was measured using a primer probe set with forward sequence […] CAT […] (SEQ ID NO: 66), reverse sequence […] (SEQ ID NO: 67). […]
After the treatment period cells were harvested, mRNA isolated and MALAT1 mRNA levels measured by quantitative real-time PCR using the primer probe set as described herein (Example 7). […]

Assay [2] relates to MALAT1. Put plainly: MALAT1 expression in pancreas by in situ hybridization (RNAscope). The assay is classed as in vivo, mouse. The following applies: 2 μmol/kg, 72 hrs after last dose. From the text: Female C57BL/6Crl mice were assigned to five treatment groups. […] All animals were sacrificed approximately 72 hrs after last dose, and pancreas harvested for ex vivo analysis of uptake of antisense oligonucleotides by immunohistochemistry.
Female C57BL/6Crl mice were assigned to five treatment groups as described herein (Example 11) All animals were sacrificed approximately 72 hrs after last dose, and pancreas harvested for ex vivo analysis of MALAT1 expression by in situ hybridization.
The in situ mRNA amplification and labelling process was performed on the Ventana Discovery ULTRA, an Automated ISH platform(Ventana Medical System, Inc) using the RNAscope® VS Assay based on Advanced Cell Diagnostics (ACD). Customized probes were obtained from ACD for the detection of MALAT1 mRNA, and various parameters were tested to optimize the novel RNAscope method for ISH. The signal was amplified using multiple steps, followed by labeled probes and detected using the RNAscope® 2.5 VS Reagent Kit-RED. Stained slides were analyzed under a standard bright-field microscope.

In assay [3] the test system is MALAT1. Put plainly: MALAT1 in situ hybridization in beta islet cells after i.v. GLP-1 ASO conjugates with various linkers. The assay is classed as in vivo, mouse. As to conditions: male C57BL/6 mice; intravenous 0.6 μmol/kg/week once a week for three weeks; 72 hours after final injection.
In assay [4] the test system is MALAT-1. Put plainly: Dose-dependent reduction of MALAT-1 expression in LVX-GLP1R cells. The assay is classed as cell-based, human. The procedure: HEK cells stably expressing FLAG-tagged GLP1R were generated by infecting HEK 293 cells with FLAG-tagged GLP1R containing lentivirus produced by transfection of 293T cells with pLVX-IRES-Puro (Clontech Laboratories Inc., Mountainview, CA) harboring the FLAG-GLP1R insert. Infected cells were selected with puromycin (2 μg/ml) and then analyzed for receptor expression by western blot and immunofluorescence. Cultured GLP1R cells were plated at a density of 10,000 cells per well and treated with 0.3, 1, 3, 9, 27, 82, 247, 741, 2,222, 6,667, and 20,000 nM modified oligonucleotide for approximately 24 hours. After the treatment period, total RNA was prepared using an RNeasy mini kit (Qiagen, Valencia, CA, USA) and qRT-PCR was performed using the primer probe set RTS2739 (forward sequence: […] (SEQ ID NO: 74), reverse sequence: […] (SEQ ID NO: 75), probe sequence: […] (SEQ ID NO: 76). Briefly, ˜50 ng total RNA in 5 d water was mixed with 0.3 d primer probe sets containing forward and reverse primers (10 μM of each) and fluorescently labeled probe (3 μM), 0.3 W RT enzyme mix (Qiagen), 4.4 d RNase-free water, and 10 d of 2×PCR reaction buffer in a 20 d reaction. Reverse transcription was performed at 48° C. for 10 min, 40 cycles of PCR were conducted at 94° C. for 20 s, and 60° C. for 20 s within each cycle, using StepOne Plus RT-PCR system (Applied Biosystems, Phoenix, AZ, USA). The mRNA levels were normalized to the amount of total RNA present in each reaction as determined by Ribogreen assay (Life Technologies) and normalized to the saline control (100% expression).

The subject of assay [5] is MALAT1. Put plainly: MALAT1 inhibition in isolated islets 72 hrs after single s.c. dose, various linkers. It counts as in vivo, mouse.

Square brackets hold non-standard residues; d marks the D form. Side chains are listed from the residue outwards. Ends that are not written are not given here. 5'‑hexylamino oligonucleotide ISIS 786434 = not defined here; Aib = CC(C)(N)C(=O)O; Mpa = O=C(O)CCS

Regarding “ISIS 816385 (H[Aib]EGTFTSDVSSYLEEQAAKEFIAWLVKGGPSSGAPPPSC([Mpa-5'‑hexylamino oligonucleotide ISIS 786434])-NH2; reading uncertain; also: Cys40 joined to the linker by a disulfide)”, the IC50 was 20 nM in assay [1] and 260 nM in assay [4] (approximately 24 hours, read-out: IC50 (MALAT-1 expression in GLP1R HEK cells)). The “MALAT1 expression in the pancreatic islet of Langerhans” value in assay [2] (subcutaneous or intravenous (ISIS 556089 subcutaneous only)) is reported as “reduced”. Also, in assay [2] (subcutaneous or intravenous), the “MALAT1 expression in the exocrine tissue of pancreas” value is given as “not in the exocrine tissue”. Moreover, the “MALAT1 expression in beta islet cells compared to saline control (in situ hybridization)” value in assay [3] is reported as “reduced”. The “dose-dependent inhibition of MALAT-1” value in assay [4] (GLP1R HEK cells, GLP-1 complexed ASOs with or without a TCA linker versus parent) was “increased dose-dependent inhibition”. In addition, the “In vivo ED50” value in assay [5] (MALAT1 in isolated islets, single subcutaneous injection) worked out at 0.0088 µmol/kg. Further, the “% MALAT1 inhibition” value in assay [5] (isolated islets, female C57BL/6Crl mice, single subcutaneous injection of 0.01 μmol/kg) is recorded as 41%.
